The target of one data set is eIF4E (28-217) (Mus musculus (murine), UniProt P63073 28-217). Put plainly: fluorescence quenching titration.
Chain of eIF4E (28-217) (P63073 28-217): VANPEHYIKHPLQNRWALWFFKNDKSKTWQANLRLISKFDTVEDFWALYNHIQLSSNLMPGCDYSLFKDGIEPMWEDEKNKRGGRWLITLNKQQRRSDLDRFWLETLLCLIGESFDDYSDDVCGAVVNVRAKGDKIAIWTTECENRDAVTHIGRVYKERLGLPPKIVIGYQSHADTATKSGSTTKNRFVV
As usually defined, the Kd is a measure of binding affinity in units of concentration. A high value points to a looser complex. With GGG (XNA, m7G1; 5'-5' triphosphate between G1 and G2; 2'-O-methyl G2) [m7GpppGmpG], binding was characterised by a dissociation constant (Kd) of 0.0228 ± 0.0006 µM.

As for GAG (XNA, m7G1; 5'-5' triphosphate between G1 and A2; 2'-O-methyl A2) [m7GpppAmpG], binding was put at a Kd of 0.0456 ± 0.0015 µM.

Turning to GCG (XNA, m7G1; 5'-5' triphosphate between G1 and C2; 2'-O-methyl C2) [m7GpppCmpG], the Kd was determined as 0.0299 ± 0.0007 µM.

The target of another data set is Murine eukaryotic translation initiation factor 4E (eIF4E, residues 28–217); meIF4E (Mus musculus, UniProt P63073). Briefly: time-synchronized fluorescence quenching titration. It is filed as binding.
Chain of Murine eukaryotic translation initiation factor 4E (eIF4E, residues 28–217); meIF4E (P63073 28-217): as above
Consider `CNc1ncnc2c1ncn2[C@@H]1O[C@H](COP(=O)(O)OP(=O)(O)OP(=O)(O)OC[C@H]2O[C@@H](n3c[n+](C)c4c(=O)[nH]c(N)nc43)[C@H](O)[C@@H]2O)[C@@H](OP(=O)(O)OC[C@H]2O[C@@H](n3cnc4c(=O)[nH]c(N)nc43)[C@H](O)[C@@H]2O)[C@H]1OC` [m^7Gppp^m6AmpG], for which binding was characterised by a dissociation constant (Kd) of 0.0328 ± 0.0008 µM.

On to `C[n+]1cn([C@@H]2O[C@H](COP(=O)(O)OP(=O)(O)OP(=O)(O)OC[C@H]3O[C@@H](n4cnc5c(=O)[nH]c(N)nc54)[C@H](O)[C@@H]3OP(=O)(O)OC[C@H]3O[C@@H](n4cnc5c(=O)[nH]c(N)nc54)[C@H](O)[C@@H]3O)[C@@H](O)[C@H]2O)c2nc(N)[nH]c(=O)c21` [m^7GpppGpG], for which binding was put at a Kd of 0.0227 ± 0.0009 µM.

In turn, `C[n+]1cn([C@@H]2O[C@H](COP(=O)(O)OP(=O)(O)OP(=O)(O)OC[C@H]3O[C@@H](n4cnc5c(N)ncnc54)[C@H](O)[C@@H]3O)[C@@H](O)[C@H]2O)c2nc(N)[nH]c(=O)c21` [m^7GpppA] returned a Kd of 0.178 ± 0.0043 µM.

`C[n+]1cn([C@@H]2O[C@H](COP(=O)(O)OP(=O)(O)OP(=O)(O)OC[C@H]3O[C@@H](n4cnc5c(N)ncnc54)[C@H](O)[C@@H]3OP(=O)(O)OC[C@H]3O[C@@H](n4cnc5c(=O)[nH]c(N)nc54)[C@H](O)[C@@H]3O)[C@@H](O)[C@H]2O)c2nc(N)[nH]c(=O)c21` [m^7GpppApG] yielded a Kd of 0.0266 ± 0.0009 µM.

`CNc1ncnc2c1ncn2[C@@H]1O[C@H](COP(=O)(O)OP(=O)(O)OP(=O)(O)OC[C@H]2O[C@@H](n3c[n+](C)c4c(=O)[nH]c(N)nc43)[C@H](O)[C@@H]2O)[C@@H](OP(=O)(O)OC[C@H]2O[C@@H](n3cnc4c(=O)[nH]c(N)nc43)[C@H](O)[C@@H]2O)[C@H]1O` [m^7Gppp^m6ApG] returned a Kd of 0.0352 ± 0.0008 µM.

`C[n+]1cn([C@@H]2O[C@H](COP(=O)(O)OP(=O)(O)OP(=O)(O)OC[C@H]3O[C@@H](n4ccc(N)nc4=O)[C@H](O)[C@@H]3OP(=O)(O)OC[C@H]3O[C@@H](n4cnc5c(=O)[nH]c(N)nc54)[C@H](O)[C@@H]3O)[C@@H](O)[C@H]2O)c2nc(N)[nH]c(=O)c21` [m^7GpppCpG] came in with a Kd of 0.0251 ± 0.0006 µM.
